Data as given in patent EP0361645B1, “Organic hydrazine derivatives for pharmaceutical use” (ROHM AND HAAS COMPANY, priority 1988, dated 1990).
pEC50: −log10 of the molar value.

Key:
[1] = tested on: Kr cells; test: Resistant Kr cell populations: response and ecdysteroid receptor activity; format: cell-based, Drosophila; settings: for response of surviving cells (process elaboration, proliferation): four weeks in 1 X 10^-6 M 20 hydroxyecdysone or 1 X 10^-4 M Example No. 3; for ^3H-ponasterone A bound by resistant cell populations: populations reared in 1 X 10^-6 M 20-hydroxyecdysone or 1 X 10^-4 M Example No. 3, solvent controls 10.1
Procedure: Resistant Kr cell populations were reared by incubating cells at an initial density of 8 X 10^6 cells/ml with hormone or Example No. 3. The cells killed by treatment provide a feeder layer for the resistant populations. […] Ponasterone binding was assayed as described below and protein concentrations were determined using the Biorad method. This cross-resistance is compelling evidence that 20-hydroxyecdysone and Example No. 3 act through the ecdysone receptor.

[2] = tested on: Kr cells; test: Process elaboration and inhibition of cell proliferation in Kr cells; format: cell-based, Drosophila; settings: Drosophila melanogaster; 48 hours incubation; initial cell density 2 X 10^6 cells/ml
Procedure: The invention will now be further described by way of exemplification and by reference to the drawings in which; • Figure 1. Both 20-hydroxyecdysone and Example No. 3 induce process elaboration (A) and inhibition of cell proliferation (B) in Kr cells in a dose-dependent manner. Initial cell density was 2 X 10^6 cells/ml; after incubation of 1 ml aliquots of the cells with the compound for 48 hours the cells were triturated gently and the percentage of cells responding (with processes longer than approximately 17 um, see Cherbas et al. 189 Wilhelm Roux's Arch. 1 (1980)) and total cell density was determined by hemocytom- eter counting, relative to ethanol (1 ul)-treated controls. Determinations were in triplicate for each dose. […] Induction of acetylcholinesterase by varying concentrations of 20-hydroxyecdysone and Example No. 3. Kr cells at an initial density of 3 X 10^6 cells/ml (10 ml per sample) were incubated with the agonist for three days. After harvesting, by centrifugation at 3000 X g, the cell pellets were washed with Robb's Drosophila saline (18, 2 X 5 ml) at 4 ° C, then lysed by sonication in 1 ml of phosphate buffer (pH 7.4, I = 0.1 M) containing 0.5 M NaCI, 0.25 M EDTA and 0.5% TRITON? X-100. See Cherbas, 197 Science 275 (1977). Triton is a registered trademark of Rohm and Haas Company for a alkylaryl polyoxyethylene glycol surfactant. After centrifugation at 16,000 X g, the supernatants were assayed for acetylcholinesterase activity by an adaptation of the method of Ellman et al., 7 Biochem. Pharmacol. 88 (1961), by subtracting out any 412 nm absorbance observed in incubations in the presence of 2 X 10-5 eserine sulfate. Thus reaction mixtures contained 50 ul of enzyme extract, 20 ul eserine (blank tubes only) and 1.0 ml of 0.5 mM acetylthiocholine, 0.3 mM dithiobisnitrobenzoic acid in phosphate buffer (pH 7.4, I = 0.1 M). Incubations were at 25 ° C for two hours; reactions in active tubes were terminated by addition of eserine. Absorbance at 412 nm was then measured. Protein concentration in extracts was measured by the Biorad method. […] Scatchard plot of ^3H-ponasterone A binding to Kr cell cytosolic receptor extracts in the presence of differing concentrations of Example No. 3. Cytosolic extract preparation and ecdysteroid receptor assays were essentially as described in Sage, 111 Meth. in Enzymol. 458 (1985). Example No. 3 was added in 1 ul DMSO to 50 ul of radioligand in 10 mM Tris buffer (pH 7.2) and 50 ul of undiluted cytosol extract. […] Ecdysteroid titers were measured by a radioimmunoassay adapted from Warren et al., 40 Experientia 393 (1984) with Protein A-Staph. aureus suspension (Sigma) used as the reagent to separate bound from free ligand. […]

SMILES | response of surviving cells (process elaboration, proliferation) [1] | ^3H-ponasterone A bound by resistant cell populations [1] | pEC50 [2]
CC(C)(O)CC[C@@H](O)[C@](C)(O)[C@H]1CC[C@@]2(O)C3=CC(=O)[C@@H]4C[C@@H](O)[C@@H](O)C[C@]4(C)[C@H]3CC[C@]12C [20-hydroxyecdysone, reference compound] | do not respond to either compound | 1.5 femtomoles ^3H-ponasterone A per mg cytosolic protein | 7.46
CC(C)(C)N(NC(=O)c1ccccc1)C(=O)c1ccccc1 [Example No. 3, N'-t-butyl-N,N'-dibenzoylhydrazine] | do not respond to either compound | 1.4 femtomoles ^3H-ponasterone A per mg cytosolic protein | 5.32
